# Assay results: US6617158B1, “Method for stimulating the production of fetal hemoglobin producing erythroid cells” (New England Medical Center, priority 1999, dated 2003)
# B1: TGF-beta 2: form of transforming growth factor beta titrated against TGF-beta 1 (protein, UniProt P61812 303-414, looked up)
# Transforming growth factor …: ALDAAYCFRNVQDNCCLRPLYIDFKRDLGWKWIHEPKGYNANFCAGACPYLWSSDTQHSRVLSLYNTINPEASASPCCVSQDLEPLTILYYIGKTPKIEQLSNMIVKSCKCS
# modifications: Transforming growth factor beta-2
# Experiments:
# Type in all cases: cell-based, human
# [1] = system: F+ cells (HbF-containing nucleated red cells) in cultures of mononuclear cells from adult blood; test: Erythroid culture of adult blood mononuclear cells; proportions of F+ cells by two-color flow cytometry
# [2] = system: F+ cells (HbF-containing nucleated red cells) in cultures of mononuclear cells from adult blood; test: as above; remark: listed apart in the source
# Description: (§1) Cells are fixed with 5% formaldehyde in PBS at 37° C. for 1 h, exposed to 100% methanol for 5 min at room temperature, then permeabilized in Solution B of the Caltag Fix & Perm kit during incubation with phycoerythrin-conjugated antibodies to the gamma chain of hemoglobin (HbF) (Cortex) and fluorescein isothiocyanate-conjugated antibodies to the beta chain of hemoglobin (HbA) or to fluorescein isothiocyanate-conjugated antibodies specific for sickle cell hemoglobin (HbS) (Isolabs). After incubation, cells are washed and suspended in PBS with 1% formaldehyde and 0.1 μg/ml Hoechst 33342.
# (§2) Cells are processed in a Becton-Dickinson Vantage flow cytometer/cell sorter with dual laser excitation (UV and 488 nm). Intact nucleated cells are selected by gating on UV-excited Hoechst […] fluorescence (430 nm) which yielded DNA histograms as well as cell cycle information by BudR-induced fluorescence quenching. Bohmer, Cell Tissue Kinet. 12: 101-110 (1979). Phycoerythrin (PE) and Fluorescein isothiocyanate (FITC) are excited at 488 nm and measured at 530 nm and 575 nm, […]. Correlated fluorescence values are recorded with appropriate color compensation. The accuracy of color compensation over 4 logs of fluorescence values is limited. To obtain absolute cell counts from the relative particle counts that a flow cytometer provides, known amounts of fluorescent plastic beads (Coulter Immunobrite Level IV) are added to the cell suspensions. Bohmer, Cell Tissue Kinet. 17: 593-600 (1984).
# Blood samples were kept at room temperature and processed as soon as possible (between 2 h and 24 h) after collection. The blood was diluted 1:4 with phosphate buffered saline (PBS), the mononuclear cells isolated by density gradient (density 1.077), washed in PBS with 1% BSA (bovine serum albumin) and cultured without further processing in standard 6-well plates, 3-5 ml per well, at a maximum density of 0.3 million/ml. The standard medium (referred to as “control” medium) comprised a mixture of 2/3 Iscoves MDM and 1/3 RPMI1640, containing methylcellulose (0.9%), C—CHS (1%), EPO (1 U/ml), SCF (20 ng/ml), IL3 (10 ng/ml), insulin (3 μg/ml), iron-saturated transferring (70 μg/ml), mercaptoethanol ([…]). Cytokines were from R&D Systems, Minneapolis, Minn. or Genzyme, Cambridge, Mass.
# A relatively brief exposure to TGF-beta during the first few days of cell culture caused a lasting shift towards HbF expression with no reduction in subsequent clonal expansion (see data below). […]
# The effect of TGF-beta treatment on cell cultures was examined and compared to the effect of serum. […] On day 7, cultures containing hundreds of colonies were turned into single-cell suspensions and the correlated contents of HbA and HbF measured by flow cytometry (FIG. 1). […]
# [3] = system: F+ and F-A+ cells in cultures of mononuclear cells from adult blood; test: Absolute numbers of F+ and F-A+ cells per culture and long-term proliferation
# Description: FIG. 5A is an example of a time course from one experiment. Cultures were treated with TGF-beta for 4 days, then propagated without TGF-beta, with further subcultivation and dilution on days 7 (1:10), 10 (1:5) and 13 (1:5). Absolute numbers of F+ and F−A+ cells per culture were determined on days 7, 10, 13 and 16. Total cell numbers were calculated using preceding culture dilution factors in the following manner: at each time of analysis, some of the cells were removed for counting, those that go back into the culture after counting are seeded with a dilution of fresh medium, to avoid medium exhaustion. Therefore, the actual numbers in the plates increase only between seeding and harvest. To calculate cell production over the whole culture time, it is necessary to multiply the counted cell numbers in the plates with all previous culture dilution factors. Closed symbols depict data from F−A+ cells, open symbols show F+ cells, and triangles show TGF-beta-treated cultures, while circles show the controls.
# FIG. 5B is a graph indicating the TGF-beta-induced change of total F+ and F− cell numbers, shown as ratio of N(TGF)/N(CON). Cultures were treated with TGF-beta for 4 days., then propagated without TGF-beta, with further subcultivation and dilution on days 7 (1:10), 10 (1:5) and 13 (1:5). Absolute numbers of F+ and F−A+ cells per culture were determined on days 7, 10, 13 and 16. Individual experiments are distinguished by different symbols. […] Median values are indicated by horizontal bar.
# as §2
# Cultures that were treated with TGF-beta from day 0-4 were sub-cultivated again on days 7, 10 and 13, and the total numbers of F+ and F−A+ cells per culture were determined on days 7, 10, 13 and 16. […] Between day 7 and 10, both cell types in both cultures proliferated at approximately the same rate. After day 10, in control cultures, the proliferation decreased strongly and equally for both F+ and F−A+ cells, maintaining the ratio. No secondary colonies were seen following the subcultivation on day 13. In contrast, the proliferation in TGF-beta-treated cultures continued for much longer for both F+ and F−A+ cells. The F−A+ cell numbers were gradually reducing the gap with F+ cells, in agreement with the gradually decreasing proportions of F+ cells shown in FIG. 4. The number of days for which the proliferation of TGF-beta-treated cultures could be maintained was highly variable between donors and appeared to correlate with the initial numbers of clonogenic cells per ml of blood. […]
# [4] = system: secondary erythroid colonies; test: Secondary erythroid colony counts after re-seeding (cell cycle effect); conditions: first few days of treatment
# Description: Cell cultures were seeded in the presence (TGF) and absence (CON) of TGF-beta and on days 1, 2, 3 and 4 washed and re-seeded in the absence of TGF-beta. On day 9, the secondary colonies/clusters were counted and plotted as a function of the number of the day of treatment before reseeding. […] Statistics from 5 experiments are shown.
# To test the cell cycle effect of TGF-beta during the first 4 days of treatment, the numbers of secondary erythroid colonies that developed upon re-seeding the cultures after different duration of TGF-beta exposure were counted (FIG. 7). A decrease in the number of secondary colonies upon re-seeding would reflect a decrease in the number of divisions undergone by colony forming cells before the cultures were re-seeded as a single-cell suspension. However, the secondary colonies became smaller and more numerous, without much effect of TGF-beta. The numbers of secondary colonies began to increase between day 1 and 2, equally in TGF-beta and controls. Between days 3 and 4 the beginnings of inhibition by TGF-beta could be seen.
# [5] = system: Mononuclear cells from one sickle cell patient; test: Sickle cell erythropoiesis culture; HbF vs HbS flow cytometry profiles; conditions: continuous culture in 30% FCS or 10 ng/ml TGF-beta, day 7
# Description: as §1
# Mononuclear cells from one sickle cell patient were continuously cultured in 30% FCS or 10 ng/ml TGF-beta. The cells were labeled with the same antibodies to HbF but with antibodies specific for HbS instead of HbA.
molecule,measurement,setting,value
TGF-beta 3: form of transforming growth factor beta titrated against TGF-beta 1,relative potency to increase proportions of F+ cells,"[1]; titration, treatment began day 2, re-seeded day 4, F+ on day 7",in between TGF-beta 1 and TGF-beta 2
TGF-beta: recombinant human transforming growth factor beta-1,effect on proportions of F+ cells,"[2]; 10 ng/ml, exposure day 0-4 or continuous, analysis day 7",increased the proportions of F+ cells dramatically
same,increased proportions of F+ cells during further culture growth,"[2]; 4-day treatment, then control medium, re-seeded days 7 and 10",maintained
same,"proportions of F+ cells, plateau","[2]; as function of exposure time (0-4 days), analysed day 7, 30% FCS or TGF-beta",80%
same,total cell counts,[2]; continuous treatment up to day 7 (not the 4-day treatment),strongly reduced total cell counts
same,N(TGF)/N(CON) of F+ cells,"[3]; 2 (out of 5) experiments, proliferating beyond 3 weeks",exceeding 100
same,total numbers of F-A+ cells versus control cultures,"[3]; between days 7 and 10, treatment day 0-4",dramatically reduced
same,reduction of F-A+ cell numbers,"[3]; day 7, treatment day 0-4",ca. 10 fold
same,"F+ cell numbers, ratio N(TGF)/N(CON)","[3]; day 7, treatment day 0-4, median",1
same,F+ population level versus controls,"[3]; on average, with increasing culture time, treatment day 0-4",ca. 10 fold
same,effect on cytokine-dependent proliferation (secondary colony numbers),[4],did not interfere with cytokine-dependent proliferation
same,relative F+ cell numbers,[5],increase in relative F+ cell numbers
same,growth of newly developing secondary colonies,"[1]; added from day 7, after approximately 2 days of treatment, 8-16-cell stage",complete and lasting growth arrest
same,effect on F+ proportions when added at later culture phase,[1]; newly supplied beginning on day 7,no effect on F+ proportions
same,proportions of F+ cells after exposure for only one day,[1]; one day exposure between days 2 and 4,substantially increased
B1,relative effectiveness versus TGF-beta 1 to increase proportions of F+ cells,"[1]; titration, treatment began day 2, re-seeded day 4, F+ on day 7, average of two experiments",~100 times
